Where no end group is shown, it is not given here.
Key:
human red blood cells = experiment: Hemolysis assay; format: cell-based; conditions: concentrations of up to 100 μg/ml, 37° C., 30 min
Procedure: Red blood cells (RBC) were obtained from citrated human blood by centrifugation (1,500×g; 10 min), washed three times with isotonic 20 mM phosphate-NaCl buffer (pH 7.4), and suspended in the same buffer at a concentration equivalent to 5% of the normal hematocrit. Forty-microliter aliquots of this RBC suspension were added to 0.96 ml of Pep19-4LF dilutions prepared in the same isotonic phosphate solution, incubated at 37° C. for 30 min, and centrifuged (1,500×g, 10 min). The supernatants were analyzed spectrophotometrically (with absorbance at 543 nm) for hemoglobin, and results were expressed as the percentage released with respect to sonicated controls (100% release) or controls processed without peptide (0% release).

HS-rats = format: in vivo
Procedure: This study was carried out on 46 male Wistar rats (Charles River Ltd, Margate, UK) weighing 230-350 g receiving a standard diet and water ad libitum. Hemorrhagic shock and quantification of organ injury and dysfunction were performed as described previously in Sordi R et al (2017) Ann Surg, 265(2):408-417. Rats were anesthetized by sodium thiopentone (120 mg/kg i.p. for induction, followed by 10 mg/kg i.v. for maintenance). Cannulation of the trachea, femoral artery (for measuring blood pressure), and carotid arteries (for blood withdrawal), jugular vein (for drug administration), and bladder (for collecting urine) were performed. Blood (up to 1 mL/min) was withdrawn via the cannula inserted in the carotid artery in order to achieve a fall in mean arterial pressure (MAP) to 27 to 32 mmHg. Thereafter, MAP was maintained at this level for a period of 90 min either by further withdrawal of blood during the compensation phase or administration shed blood during the decompensation phase. At 90 min after initiation of hemorrhage (or when 25% of the shed blood had to be re-injected to sustain MAP at 27 to 32 mmHg), animals were resuscitated with the remaining shed blood (mixed with 100 IU/mL heparinized saline) (over a period of 5 min) plus a volume of Ringer's lactate identical to the volume of blood spent during decompensation. During the last 3 h of resuscitation, urine was obtained for the estimation of creatinine clearance. Then, blood samples were collected via the carotid artery for measurement of lactate (Accutrend Plus Meter, Roche Diagnostics, West Sussex, UK) and organ injury/dysfunction parameters. Under deep anesthesia, the heart was removed to terminate the experiment. Blood samples were centrifuged to separate serum, which was used for the determination of urea, creatinine, aspartate aminotransferase (AST), alanine aminotransferase (ALT), lipase, amylase and creatine kinase (CK) by an external contract research facility (IDEXX Laboratories Ltd, West Yorkshire, UK) in a blinded fashion. In addition, lung, kidney and liver samples were taken and stored at −80° C. for further analysis. Sham-operated rats were used as control and underwent identical surgical procedures, but without hemorrhage or resuscitation. Blood pressures during the experiment were measured by Powerlab®, and recorded and analyzed by Labchart® (AD instruments Ltd, Dunedin, New Zealand).
The following groups were studied: Sham+vehicle (n=11), sham+Pep19-4LF (n=6), HS+vehicle (n=12), HS+Pep19-4LF-LD (n=8), HS+Pep19-4LF-HD (n=8), HS+Pep19-2.5-HD (n=8). Rats were administered vehicle (saline 1.5 ml/kg/h) or Pep19-4LF (low dose (LD)=66 μg/kg×h; high dose (HD)=333 μg/kg×h) or Pep19-2.5 (high dose (HD)=333 μg/kg×h) continuously for 4 h after resuscitation using infusion pump for rodents (PHD2000, 70-2000; Harvard apparatus Massachusetts, U.S). 11 rats were excluded from data analysis due to surgical/technical issues (n=5) prior to onset of HS and death during resuscitation (n=6). The doses of Pep19-4LF and Pep19-2.5 used in this study were based on efficacy seen in previous in vitro and in vivo studies (Schuerholz T et al (2013) Crit Care, 17(1):R3; Tejada G Md et al (2015) Sci Rep, 5:14292; Martin L et al (2015) PLoS One, 10(5):e0127584; Martin L et al (2015) PLoS One, 10(11):e0143583).

[1] = therapeutic doses; cited from earlier work
[2] = Tejada G Md et al (2015); cited from earlier work
[3] = HS-rats, high dose 333 μg/kg×h i.v., 4 h after HS, vs vehicle

| Substance | hemolysis (hemoglobin release) (human red blood cells) | MAP in sham-operated rats (HS-rats; sham-operated rats, high dose 333 μg/kg×h) | toxicity limiting therapeutic use in man [1] | effects of LPS and lipoproteins [2] | liver injury caused by HS (HS-rats; HS-rats) | pancreatic injury caused by HS (HS-rats; HS-rats) | renal dysfunction caused by HS (HS-rats; HS-rats) | decline in MAP during the resuscitation period (HS-rats; HS-rats, high dose 333 μg/kg×h i.v. continuously for 4 h after resuscitation, vs HS+vehicle) | organ injury and dysfunction caused by HS (HS-rats; [3]) | rise in lactate caused by HS (HS-rats; [3]) |
| --- | --- | --- | --- | --- | --- | --- | --- | --- | --- | --- |
| GKKYRRFRWKFKGKLFLFG-NH2 [Pep19-4LF, GKKYRRFRWKFKGKLFLFG] | no considerable degree of hemolysis | had no effect |  |  |  |  |  |  |  |  |
| LL-37: cathelicidin-derived human AMP (host-defence/antimicrobial peptide) [reference compound] |  |  | systemic toxicity | neutralize |  |  |  |  |  |  |
| GCKKYRRFRWKFKGKFWFWG (20-amino acid peptide, Pep19-2.5) [20-mer linear synthetic antimicrobial peptide based on Limulus anti-LPS factor] |  |  |  | neutralize | significantly attenuated | significantly attenuated | significantly attenuated | significantly attenuated | significantly attenuated | significantly attenuated |

— US20190092814A1, “Peptide” (priority 2017, published 2019)
